This is an account of results in publication PMC8705904, “Structural Bases for Hesperetin Derivatives: Inhibition of Protein Tyrosine Phosphatase 1B, Kinetics Mechanism and Molecular Docking Study” (Molecules, 2021).

In test [1] the target is T1, PTP1B (human recombinant) (Homo sapiens, UniProt P18031).
T1 construct: purchased Biomol International LP (Plymouth Meeting, PA, USA)
T1 sequence (P18031 1-435): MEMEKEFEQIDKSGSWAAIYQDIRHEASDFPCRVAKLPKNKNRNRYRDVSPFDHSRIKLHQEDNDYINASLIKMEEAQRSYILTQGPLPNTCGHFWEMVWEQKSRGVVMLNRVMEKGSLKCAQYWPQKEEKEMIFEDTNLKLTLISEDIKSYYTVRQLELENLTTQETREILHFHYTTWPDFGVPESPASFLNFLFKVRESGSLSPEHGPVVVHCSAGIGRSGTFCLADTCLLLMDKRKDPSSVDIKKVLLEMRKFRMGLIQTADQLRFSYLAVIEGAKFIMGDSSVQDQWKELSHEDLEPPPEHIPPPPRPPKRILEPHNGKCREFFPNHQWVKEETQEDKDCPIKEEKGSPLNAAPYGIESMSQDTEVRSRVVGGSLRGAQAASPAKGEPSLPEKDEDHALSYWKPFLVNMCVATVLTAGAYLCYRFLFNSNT
As to the kind of experiment: PTP1B inhibitory assay using pNPP. In kind it is biochemical. As to conditions: for IC50: mean ± S.E.M of triplicate experiments, substrate pNPP. On the procedure:
(§1) The PTP1B inhibitory activity was evaluated using pNPP according to the work of Jung et al.. In each well of a 96-well plate (each with a final volume of 100 µL), 40 µL of PTP1B enzyme [0.5 units diluted with a PTP1B reaction buffer containing 50 mM citrate (pH 6.0), 0.1 M NaCl, 1 mM EDTA, and 1 mM DTT] was added with or without the sample dissolved in 10% DMSO. The plate was preincubated at 37 °C for 10 min and then 50 µL of 2 mM pNPP in the PTP1B reaction buffer was added. Following incubation at 37 °C for 20 min, the reaction was terminated by the addition of 10 M NaOH. […] The inhibition percentage was obtained using the following equation: % inhibition = (Ac − As)/Ac × 100, where Ac is the absorbance of the control and As is the absorbance of the sample.

Test [2] has as its target T1, PTP1B (human recombinant). The experiment in a line: Kinetic analysis of PTP1B inhibition (Lineweaver–Burk and Dixon plots). The class given is biochemical. As to conditions: for Ki: determined by Dixon plots; for PTP1B type of inhibition: determined by Lineweaver–Burk plots, pNPP 0.5, 1.0 and 2.0 mM. On the procedure:
as §1
To determine the kinetic mechanism, two kinetic methods using Lineweaver–Burk and Dixon plots were complementarily used. […] The enzymatic inhibitions of the test flavonoids were evaluated by monitoring the effects of different concentrations of the […] in the Dixon plots (single reciprocal plot). The enzymatic procedure consisted of the same, aforementioned, PTP1B assay method. The inhibition constants (Ki) were determined by interpretation of the Dixon plots, where the value of the x-axis implies -Ki.

As usually defined, the IC50 is the concentration needed to halve the response being measured. The term Ki denotes the equilibrium dissociation constant of an inhibitor or competing ligand from its target. Take `COc1ccc(C2CC(=O)c3c(O)cc(OC4OC(COC5OC(C)C(O)C(O)C5O)C(O)C(O)C4O)cc3O2)cc1O` (stereo not drawn) [Hesperidin, hesperetin 7-O-rutinoside]: in test [1], the IC50 came out at 58.1 ± 4.18 µM. Moreover, in test [2], the Ki was 50 µM and the “PTP1B type of inhibition” value was “Mixed”. For the same compound, the “PTP1B type of inhibition” value in test [2] (listed as hesperidin) was “mixed-type inhibition”.
With `COc1ccc(C2CC(=O)c3c(cc(O)cc3OC3OC(CO)C(O)C(O)C3O)O2)cc1O` (stereo not drawn) [Hesperetin 5-O-glucoside], the half-inhibitory concentration (IC50) in test [1] was found to be 37.14 ± 0.07 µM. Besides, in test [2], the Ki worked out at 81.6 µM and the “PTP1B type of inhibition” value was “Mixed”. Besides, the “PTP1B type of inhibition” value in test [2] (listed as hesperetin 5-O-glucoside) is “mixed-type inhibition”.
As to `COc1ccc(C2CC(=O)c3c(O)cc(OC4OC(CO)C(O)C(O)C4OC4OC(C)C(O)C(O)C4O)cc3O2)cc1O` (stereo not drawn) [Neohesperidin, hesperetin 7-O-neohesperidoside], the half-maximal inhibitory concentration (IC50) in test [1] came out at 144 ± 3.04 µM. Besides, in test [2], the Ki amounted to 154 µM and the “PTP1B type of inhibition” value is listed as “Uncompetitive”. Besides, in test [2] (listed as neohesperidin), the “PTP1B type of inhibition” value was “uncompetitive-type inhibition”.
As for `COc1ccc(C2CC(=O)c3c(O)cc(OC4OC(CO)C(O)C(O)C4O)cc3O2)cc1O` (stereo not drawn) [Hesperetin 7-O-glucoside], in test [1], the “PTP1B inhibitory activity (in words)” value is “inactive” and the half-inhibitory concentration (IC50) was greater than 300 µM.
Turning to `COc1ccc([C@@H]2CC(=O)c3c(O)cc(O)cc3O2)cc1O` [Hesperetin], in test [1], the IC50 stood at 288 ± 7.98 µM. For the same compound, in test [2], the inhibitory constant (Ki) amounted to 295 µM. The “PTP1B type of inhibition” value in test [2] is “Uncompetitive”; in test [2] (listed as hesperetin) it was “uncompetitive-type inhibition”.
